Assay results reported in paper PMC7026418, “The kinase polypharmacology landscape of clinical PARP inhibitors” (Scientific Reports, 2020).
Where two headings read alike, the source gives them in different places. Values belong to the compound of their own block, whether it stands above or below them.

Assays:
Assay in all cases: biochemical
Set-up in all cases: DiscoveRx KINOMEscan active site-directed competition binding; percent of control kinase bound to immobilised ligand
[1] = target: EPHA2 (Homo sapiens, UniProt P29317)
[2] = target: T1, EPHB1 (Homo sapiens, UniProt P54762)
T1 sequence (P54762 1-984): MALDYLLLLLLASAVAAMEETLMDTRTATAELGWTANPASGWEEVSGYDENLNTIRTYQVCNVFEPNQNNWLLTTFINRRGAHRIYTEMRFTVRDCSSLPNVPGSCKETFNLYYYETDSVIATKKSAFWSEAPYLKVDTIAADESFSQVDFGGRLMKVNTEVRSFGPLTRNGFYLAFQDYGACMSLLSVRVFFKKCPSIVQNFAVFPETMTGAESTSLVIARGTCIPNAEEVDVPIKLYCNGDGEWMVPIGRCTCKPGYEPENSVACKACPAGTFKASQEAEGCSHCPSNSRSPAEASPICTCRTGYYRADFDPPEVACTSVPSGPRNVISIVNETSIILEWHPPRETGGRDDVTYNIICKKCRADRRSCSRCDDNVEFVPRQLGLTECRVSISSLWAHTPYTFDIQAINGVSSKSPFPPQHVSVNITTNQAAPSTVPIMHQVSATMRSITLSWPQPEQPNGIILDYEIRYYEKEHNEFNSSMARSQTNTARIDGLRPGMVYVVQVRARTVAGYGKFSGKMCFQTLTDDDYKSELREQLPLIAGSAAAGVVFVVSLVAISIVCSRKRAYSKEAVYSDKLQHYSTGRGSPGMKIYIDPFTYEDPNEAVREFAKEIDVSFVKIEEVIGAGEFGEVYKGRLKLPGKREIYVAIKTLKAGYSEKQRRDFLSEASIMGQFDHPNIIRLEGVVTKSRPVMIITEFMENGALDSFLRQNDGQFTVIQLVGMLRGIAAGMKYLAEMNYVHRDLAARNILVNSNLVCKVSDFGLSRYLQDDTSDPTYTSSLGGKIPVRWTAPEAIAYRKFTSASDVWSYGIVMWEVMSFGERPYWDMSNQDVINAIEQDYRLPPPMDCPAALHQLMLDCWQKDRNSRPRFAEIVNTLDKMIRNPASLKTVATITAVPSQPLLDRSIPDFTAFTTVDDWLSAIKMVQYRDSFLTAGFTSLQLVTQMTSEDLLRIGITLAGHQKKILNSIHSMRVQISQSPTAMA

[3] = target: T2, EPHB4 (Homo sapiens, UniProt P54760)
T2 sequence (P54760 1-987): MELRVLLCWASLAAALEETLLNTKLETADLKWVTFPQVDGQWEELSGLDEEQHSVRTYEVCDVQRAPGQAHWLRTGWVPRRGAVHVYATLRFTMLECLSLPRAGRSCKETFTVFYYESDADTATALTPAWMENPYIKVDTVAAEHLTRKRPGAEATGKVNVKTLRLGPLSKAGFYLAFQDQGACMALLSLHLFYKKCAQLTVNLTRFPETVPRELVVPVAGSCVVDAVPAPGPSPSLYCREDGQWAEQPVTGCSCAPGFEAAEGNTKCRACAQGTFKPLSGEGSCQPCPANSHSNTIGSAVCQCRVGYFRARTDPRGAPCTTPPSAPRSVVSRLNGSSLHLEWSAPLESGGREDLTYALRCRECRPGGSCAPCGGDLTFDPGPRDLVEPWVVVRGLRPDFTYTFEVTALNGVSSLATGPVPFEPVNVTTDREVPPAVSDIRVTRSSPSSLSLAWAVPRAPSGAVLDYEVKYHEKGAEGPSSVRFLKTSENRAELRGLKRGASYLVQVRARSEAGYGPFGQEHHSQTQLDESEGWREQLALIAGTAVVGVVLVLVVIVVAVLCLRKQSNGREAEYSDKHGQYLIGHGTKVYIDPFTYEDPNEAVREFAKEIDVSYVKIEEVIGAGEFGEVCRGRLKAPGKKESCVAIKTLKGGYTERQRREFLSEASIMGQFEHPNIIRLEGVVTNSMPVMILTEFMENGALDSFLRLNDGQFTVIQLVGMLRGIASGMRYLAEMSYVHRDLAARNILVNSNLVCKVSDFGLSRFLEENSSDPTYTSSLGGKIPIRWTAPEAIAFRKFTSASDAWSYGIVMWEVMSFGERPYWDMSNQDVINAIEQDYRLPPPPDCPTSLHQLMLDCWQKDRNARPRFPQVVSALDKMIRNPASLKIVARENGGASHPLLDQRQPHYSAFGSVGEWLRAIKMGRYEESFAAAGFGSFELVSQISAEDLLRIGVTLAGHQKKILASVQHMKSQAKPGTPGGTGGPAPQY

[4] = target: T3, MEK1 (Homo sapiens, UniProt Q02750)
T3 construct: gene MAP2K1

[5] = target: PIK3CA(I800L) (Homo sapiens, UniProt P42336, I800L)
[6] = target: T4, ULK3 (Homo sapiens, UniProt Q6PHR2)
T4 sequence (Q6PHR2 1-472): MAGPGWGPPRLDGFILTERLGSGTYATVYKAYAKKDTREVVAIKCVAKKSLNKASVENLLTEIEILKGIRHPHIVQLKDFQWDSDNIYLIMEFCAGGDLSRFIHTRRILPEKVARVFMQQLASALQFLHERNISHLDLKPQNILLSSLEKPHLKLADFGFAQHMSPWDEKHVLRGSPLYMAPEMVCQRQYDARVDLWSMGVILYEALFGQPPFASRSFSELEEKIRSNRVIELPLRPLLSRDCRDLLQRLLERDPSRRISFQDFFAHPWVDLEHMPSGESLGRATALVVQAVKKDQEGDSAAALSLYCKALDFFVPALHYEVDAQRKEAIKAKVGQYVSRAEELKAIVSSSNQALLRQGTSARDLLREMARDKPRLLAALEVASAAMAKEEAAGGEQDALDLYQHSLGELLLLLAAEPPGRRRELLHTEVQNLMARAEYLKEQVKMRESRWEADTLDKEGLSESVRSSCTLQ

[7] = read-out: Niraparib (MK-4827) / %Ctrl @ 10000nM
[8] = read-out: Rucaparib / %Ctrl @ 10000nM, binding competition, % of control
[9] = read-out: Olaparib / %Ctrl @ 10000nM
[10] = read-out: Talazoparib (BMN 673) / %Ctrl @ 10000nM

Sequence of EPHA2 (P29317 whole entry): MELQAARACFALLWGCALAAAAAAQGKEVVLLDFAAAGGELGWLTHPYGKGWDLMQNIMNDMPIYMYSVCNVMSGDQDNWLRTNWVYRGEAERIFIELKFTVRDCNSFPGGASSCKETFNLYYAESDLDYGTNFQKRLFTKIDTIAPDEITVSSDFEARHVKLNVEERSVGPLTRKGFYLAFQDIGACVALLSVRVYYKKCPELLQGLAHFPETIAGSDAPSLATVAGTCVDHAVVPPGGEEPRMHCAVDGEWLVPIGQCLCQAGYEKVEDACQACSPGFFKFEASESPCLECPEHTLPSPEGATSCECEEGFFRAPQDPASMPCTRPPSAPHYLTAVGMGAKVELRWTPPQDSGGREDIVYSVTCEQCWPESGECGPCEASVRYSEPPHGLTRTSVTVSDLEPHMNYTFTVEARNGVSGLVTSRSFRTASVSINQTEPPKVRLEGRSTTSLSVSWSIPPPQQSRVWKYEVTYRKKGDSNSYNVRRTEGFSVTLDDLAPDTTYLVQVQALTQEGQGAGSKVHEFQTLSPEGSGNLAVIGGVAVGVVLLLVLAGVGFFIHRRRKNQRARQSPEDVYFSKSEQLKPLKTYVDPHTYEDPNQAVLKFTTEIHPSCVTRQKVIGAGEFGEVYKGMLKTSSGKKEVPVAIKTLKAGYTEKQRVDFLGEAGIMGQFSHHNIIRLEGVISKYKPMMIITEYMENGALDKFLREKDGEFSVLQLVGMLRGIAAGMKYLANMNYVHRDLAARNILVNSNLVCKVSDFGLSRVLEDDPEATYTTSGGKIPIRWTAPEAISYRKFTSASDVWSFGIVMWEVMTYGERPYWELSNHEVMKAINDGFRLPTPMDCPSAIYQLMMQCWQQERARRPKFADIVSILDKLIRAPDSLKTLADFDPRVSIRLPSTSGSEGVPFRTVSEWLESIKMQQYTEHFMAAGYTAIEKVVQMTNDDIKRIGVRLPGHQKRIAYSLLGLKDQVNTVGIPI
T3 sequence (Q02750 whole entry): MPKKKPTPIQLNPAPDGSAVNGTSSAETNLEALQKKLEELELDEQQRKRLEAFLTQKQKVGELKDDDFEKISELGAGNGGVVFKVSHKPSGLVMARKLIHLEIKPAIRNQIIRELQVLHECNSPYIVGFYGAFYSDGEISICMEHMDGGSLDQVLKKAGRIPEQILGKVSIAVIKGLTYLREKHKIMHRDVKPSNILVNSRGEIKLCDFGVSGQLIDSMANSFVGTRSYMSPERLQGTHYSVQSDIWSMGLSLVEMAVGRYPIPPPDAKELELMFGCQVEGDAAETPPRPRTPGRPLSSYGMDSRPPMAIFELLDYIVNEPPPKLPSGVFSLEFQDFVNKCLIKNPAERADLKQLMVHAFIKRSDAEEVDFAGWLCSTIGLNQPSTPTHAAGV
Sequence of PIK3CA(I800L) (P42336 whole entry I800L): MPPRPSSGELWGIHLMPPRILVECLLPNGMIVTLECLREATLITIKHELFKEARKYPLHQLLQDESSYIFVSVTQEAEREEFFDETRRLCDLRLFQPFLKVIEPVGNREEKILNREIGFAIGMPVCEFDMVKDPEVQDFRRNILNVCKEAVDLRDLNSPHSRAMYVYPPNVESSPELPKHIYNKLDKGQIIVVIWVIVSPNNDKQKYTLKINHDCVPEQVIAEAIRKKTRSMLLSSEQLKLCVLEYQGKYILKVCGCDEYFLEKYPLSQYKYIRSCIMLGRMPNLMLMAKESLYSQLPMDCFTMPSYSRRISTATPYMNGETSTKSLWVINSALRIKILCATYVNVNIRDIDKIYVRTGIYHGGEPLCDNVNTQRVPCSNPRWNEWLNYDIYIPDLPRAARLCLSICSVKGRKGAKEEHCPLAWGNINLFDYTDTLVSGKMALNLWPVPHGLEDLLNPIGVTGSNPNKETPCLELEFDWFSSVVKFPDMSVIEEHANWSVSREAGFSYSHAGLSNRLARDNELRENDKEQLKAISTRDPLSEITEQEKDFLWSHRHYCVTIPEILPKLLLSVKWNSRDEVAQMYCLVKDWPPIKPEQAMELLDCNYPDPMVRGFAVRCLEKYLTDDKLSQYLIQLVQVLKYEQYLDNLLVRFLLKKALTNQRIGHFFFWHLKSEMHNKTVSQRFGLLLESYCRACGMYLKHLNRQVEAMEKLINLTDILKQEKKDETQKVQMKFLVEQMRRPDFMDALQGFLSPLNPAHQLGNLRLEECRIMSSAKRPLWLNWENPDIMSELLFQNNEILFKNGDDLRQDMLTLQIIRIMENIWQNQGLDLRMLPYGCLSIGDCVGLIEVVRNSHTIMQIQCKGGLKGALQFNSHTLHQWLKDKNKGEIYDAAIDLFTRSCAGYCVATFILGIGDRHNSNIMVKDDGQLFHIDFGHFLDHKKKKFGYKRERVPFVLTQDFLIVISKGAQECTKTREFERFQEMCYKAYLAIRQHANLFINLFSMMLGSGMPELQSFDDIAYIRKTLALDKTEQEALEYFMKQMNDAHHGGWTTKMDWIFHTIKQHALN

SMILES: NC(=O)c1cccc2cn(-c3ccc([C@@H]4CCCNC4)cc3)nc12 [Niraparib]
percent of control binding at 10 µM [1, 7]: 94%
percent of control binding at 10 µM [2, 7]: 76%
percent of control binding at 10 µM [3, 7]: 91%
percent of control binding at 10 µM [4, 7]: 79%
percent of control binding at 10 µM [5, 7]: 38%
percent of control binding at 10 µM [6, 7]: 100%

percent of control binding at 10 µM [1, 8]: 100%
percent of control binding at 10 µM [2, 8]: 100%
percent of control binding at 10 µM [3, 8]: 95%
percent of control binding at 10 µM [4, 8]: 69%
percent of control binding at 10 µM [5, 8]: 66%
percent of control binding at 10 µM [6, 8]: 70%
SMILES: CNCc1ccc(-c2[nH]c3cc(F)cc4c3c2CCNC4=O)cc1 [Rucaparib]

percent of control binding at 10 µM [1, 9]: 97%
percent of control binding at 10 µM [2, 9]: 99%
percent of control binding at 10 µM [3, 9]: 90%
percent of control binding at 10 µM [4, 9]: 79%
percent of control binding at 10 µM [5, 9]: 80%
percent of control binding at 10 µM [6, 9]: 80%
SMILES: O=C(c1cc(Cc2n[nH]c(=O)c3ccccc23)ccc1F)N1CCN(C(=O)C2CC2)CC1 [Olaparib]

percent of control binding at 10 µM [1, 10]: 100%
percent of control binding at 10 µM [2, 10]: 94%
percent of control binding at 10 µM [3, 10]: 100%
percent of control binding at 10 µM [4, 10]: 67%
percent of control binding at 10 µM [5, 10]: 71%
percent of control binding at 10 µM [6, 10]: 84%
SMILES: Cn1ncnc1[C@H]1c2n[nH]c(=O)c3cc(F)cc(c23)N[C@@H]1c1ccc(F)cc1 [Talazoparib]
